{"source": "patent US20190365784A1", "about": "“USE OF BRASSINOSTEROID ANALOGS FOR THE TREATMENT OF DERMAL DISORDERS BY SELECTIVELY MODULATING LIVER X RECEPTORS (LXR) AND DERMAL DISEASE TREATMENT BY BRASSINOSTEROID ANALOGS ACTING AS SELECTIVE LIVER X RECEPTOR (LXR) MODULATORS” (CONSEJO NACIONAL DE INVESTIGACIONES CIENTÍFICAS Y TÉCNICAS …, priority 2015, published 2019)", "key": {"[1]": {"system": "imiquimod-induced skin lesions", "test": "Imiquimod-induced psoriasis model in mice: clinical signs and dorsal skin histopathology", "assay_type": "in vivo", "parameters": "key to Hyperkeratosis, protective effect / Epidermal serocellular crust, protective effect / Acanthosis, protective effect / Dermal inflammatory infiltrates, protective effect: the (+) sign represents the presence of a protective effect; a (−) sign represents the absence of protective effect", "conditions": "for Acanthosis (0-4), group mean score of dorsal skin / Basliar papillae (0-4), group mean score of dorsal skin / Dermal inflammatory infiltrates (0-4), group mean score of dorsal skin / Dilated tortuous capillaries (0-4), group mean score of dorsal skin / Epidermal micro-abscesses (0-4), group mean score of dorsal skin / Epidermal serocellular rust (0-4), group mean score of dorsal skin / Hyperkeratosis (0-4), group mean score of dorsal skin / Mean Global Score, dorsal skin / Parakeratosis (0-4), group mean score of dorsal skin: psoriatic mice; for Acanthosis (0-4), group mean score of dorsal skin / Basliar papillae (0-4), group mean score of dorsal skin / Dermal inflammatory infiltrates (0-4), group mean score of dorsal skin / Dilated tortuous capillaries (0-4), group mean score of dorsal skin / Epidermal micro-abscesses (0-4), group mean score of dorsal skin / Epidermal serocellular rust (0-4), group mean score of dorsal skin / Hyperkeratosis (0-4), group mean score of dorsal skin / Mean Global Score, dorsal skin / Parakeratosis (0-4), group mean score of dorsal skin / severity of microscopic alterations of back skin (histopathology): QD 9 days", "description": "To test whether Compound I might ameliorate the signs of psoriasis, we topically administered Compound I to imiquimod-induced skin lesions in mice. The imiquimod mouse model of psoriasis-like skin inflammation is characterized by lesions that show augmented epidermal cell proliferation, abnormal keratinocyte differentiation, neutrophil accumulation in epidermal microabcesses, and neoangiogenesis.\nFor this study, thirty two 8-week old female Balbc/J mice were housed […] in positively ventilated polysulfonate cages with HEPA filtered air at a density of 4 mice per cage. The animal room was lighted entirely with artificial fluorescent lighting, with a controlled 12 h light/dark cycle (6 am to 6 pm light). The normal temperature and relative humidity ranges in the animal rooms were 22±4° C. and 50±15%, respectively. The animal rooms were set to have a minimum of 15 air exchanges per hour. Filtered tap water, acidified to a pH of 2.5 to 3.0, and standard rodent chow were provided ad libitum. After 1 week of acclimation mice were randomized into 4 groups (n=8/each) as shown below (Table 1).\n1. IMQ induction: On day 0 all grouped mice received a topical dose of 62.5 mg of IMQ cream (5%) on the shaved back for 6 consecutive days. (Day 0 to Day 5)\n3. Mice were scored for clinical parameters of disease based on degree of erythema, scaling and thickening independently on a scale of 0-4. 0=none; 1=slight; 2=moderate; 3=moderate to severe: 4=severe. These observations were recorded on day 0, 2, 4, 6, and 8. On the same days, back skin thickness was measured with calipers.\n5. Mice were sacrificed on day 10 by CO2 asphyxiation.\n6. A part of the back skin was harvested and fixed for histology. Slides were processed, stained with H&E for histology assessment.\nDorsal skin sections were evaluated histopathologically for evidence of key features of psoriasis, such as parakeratosis, hyperkeratosis (thickening of the stratum corneum), acanthosis (diffuse thickening of the stratum spinosum of the skin), epidermal serocellular crusts, epidermal microabscesses, basilar papillae, dermal inflammatory infiltrates and dilated tortuous capillaries (Table 2. Histopathological scoring system and definition used in the Imiquimod psoriasis model)."}, "granuloma formation": {"system": "granuloma formation", "test": "Granuloma formation in a mouse model of subchronic inflammation", "assay_type": "in vivo", "conditions": "mice; 10 mg/kg body weight; previously showed, data not shown"}, "LXR-alpha": {"system": "LXR-alpha", "test": "LXR-alpha expression in HepG2 cells (real time PCR)", "assay_type": "cell-based, human", "conditions": "10 uM, 6 h", "procedure": "The cells were incubated for 6 h in the presence of either Compound I (10 uM), or Compound II (10 uM), or the commercial LXR agonist GW3965 (1 uM), or Vehicle [DMSO, 0.1% (v/v)]). To obtain RNA, at the end of the incubation the cells were collected by centrifugation at 1,000 rpm for 2 min, washed with phosphate buffered saline, and lysed in 300 ul TRIZOL (Invitrogen). RNA samples were suspended in ul of RNAse free water, and their concentration determined (NanoDrop spectrophotometer). The ratio of the absorbance at 260 and 280 nm was used to assess RNA purity of an RNA preparation, with a value of 1.8-2.0 indicating pure RNA. To obtain cDNA, 1 ug of total RNA was denatured by incubating for 5 min at 70° C., before the addition of a mixture containing 0.5 ug oligo-dT primers and 25 ng/ml of random primers (Invitrogen), 1.0 mM dNTPs (Invitrogen), and 200 U M-MLV reverse transcriptase (Promega); after this the mixture was retrotranscribed at 37° C. for 60 min, followed by an incubation at 95° C. for 5 min to inactivate the enzyme. For the real time PCR amplification (Stratagene Thermal Cycler), cDNA samples were diluted 1/5 to 1/10 depending on the target amplification product. Calibration curves were obtained by use of eight successive 1:2 sample dilutions. […]"}, "[2]": {"test": "Plasma total cholesterol, HDL-cholesterol and triglyceride in C57BI mice after 5 days i.p. treatment", "assay_type": "in vivo", "conditions": "male C57BI mice; Compound I 10 mg/kg i.p. daily for 5 days", "description": "(§1) Administration of synthetic LXR agonists such as T0901317 induces a marked increment of liver lipogenesis that leads to hepatic steatosis and plasma hypertriglyceridemia.\n(§2) Male C57BI mice received daily for 5 days intraperitoneal injections containing either 10 mg Compound I/kg, or 5 mg T0901317/kg, or vehicle [90% (v/v) DMSO in apyrogenic sterile water]. On the sixth day of the assay, the animals were fasted for 4 h before decapitation. Blood plasma was obtained for the determination of total cholesterol, HDL-cholesterol and triglyceride contents. The livers were resected, and their weights and colors used as gross markers of increased liver triglyceride contents."}, "[3]": {"test": "Liver weight and gross morphology (hepatic steatosis) in C57BI mice after 5 days i.p. treatment", "assay_type": "in vivo", "conditions": "male C57BI mice; Compound I 10 mg/kg i.p. daily for 5 days", "description": "as §1, §2"}, "[4]": {"conditions": "0.1% (w/v) Compound I vs 0.1% (w/v) Clobetasol as printed"}, "[5]": {"conditions": "topical 0.10%, summary of Table 3"}}, "note": "Marks after values point to notes of the source that are not given here."}
{"molecule": "CC[C@@H](C(C)C)[C@H](O)[C@@H](O)[C@@H](C)[C@H]1CC[C@H]2[C@@H]3CCC4=CC(=O)CC[C@]4(C)[C@H]3CC[C@]12C", "note": "[Compound I, (22S,23S)-22,23-dihydroxystigmast-4-en-3-one]", "values": [{"measurement": "epidermal sero-cellular crust reduced relative to Clobetasol-treated mice", "setting": "[1]; [4]", "value": 50, "unit": "%"}, {"measurement": "hyperkeratosis reduced relative to Clobetasol-treated mice", "setting": "[1]; [4]", "value": 50, "unit": "%"}, {"measurement": "global response score of dorsal skin, lower vs. vehicle-treated animals", "setting": "[1]; Compound I 0.1% topical, 9 days", "value": "~26", "unit": "%"}, {"measurement": "back skin thickening (calipers)", "setting": "[1]; after 9 days topical, Compound I 0.05% and 0.1% (w/v), clobetasol 0.05% cream", "value": "None of the assayed Compound I's doses prevented back skin thickening"}, {"measurement": "erythema reduction relative to vehicle-treated mice", "setting": "[1]; day 8, both Compound I doses 0.05% and 0.1% (w/v), topical", "value": 50, "unit": "%"}, {"measurement": "skin erythema (clinical score 0-4, in words)", "setting": "[1]; day 8, topical QD 9 days, both Compound I doses 0.05% and 0.1% (w/v), clobetasol 0.05% cream", "value": "slight"}, {"measurement": "scaling (clinical score 0-4, in words)", "setting": "[1]; day 8, topical QD 9 days, both Compound I doses, clobetasol 0.05% cream", "value": "no improvement"}, {"measurement": "Acanthosis (0-4), group mean score of dorsal skin", "setting": "[1]; topical 0.05%", "value": 2.4}, {"measurement": "Basliar papillae (0-4), group mean score of dorsal skin", "setting": "[1]; topical 0.05%", "value": 0.0}, {"measurement": "Dermal inflammatory infiltrates (0-4), group mean score of dorsal skin", "setting": "[1]; topical 0.05%", "value": 2.0}, {"measurement": "Dilated tortuous capillaries (0-4), group mean score of dorsal skin", "setting": "[1]; topical 0.05%", "value": 0.0}, {"measurement": "Epidermal micro-abscesses (0-4), group mean score of dorsal skin", "setting": "[1]; topical 0.05%", "value": 0.0}, {"measurement": "Epidermal serocellular rust (0-4), group mean score of dorsal skin", "setting": "[1]; topical 0.05%", "value": 0.4}, {"measurement": "Hyperkeratosis (0-4), group mean score of dorsal skin", "setting": "[1]; topical 0.05%", "value": "1.3*"}, {"measurement": "Mean Global Score, dorsal skin", "setting": "[1]; topical 0.05%", "value": 6.4}, {"measurement": "Parakeratosis (0-4), group mean score of dorsal skin", "setting": "[1]; topical 0.05%", "value": 0.4}, {"measurement": "Acanthosis (0-4), group mean score of dorsal skin", "setting": "[1]; topical 0.10%", "value": 2.1}, {"measurement": "Basliar papillae (0-4), group mean score of dorsal skin", "setting": "[1]; topical 0.10%", "value": 0.0}, {"measurement": "Dermal inflammatory infiltrates (0-4), group mean score of dorsal skin", "setting": "[1]; topical 0.10%", "value": 1.5}, {"measurement": "Dilated tortuous capillaries (0-4), group mean score of dorsal skin", "setting": "[1]; topical 0.10%", "value": 0.0}, {"measurement": "Epidermal micro-abscesses (0-4), group mean score of dorsal skin", "setting": "[1]; topical 0.10%", "value": 0.0}, {"measurement": "Epidermal serocellular rust (0-4), group mean score of dorsal skin", "setting": "[1]; topical 0.10%", "value": "0.3†"}, {"measurement": "Hyperkeratosis (0-4), group mean score of dorsal skin", "setting": "[1]; topical 0.10%", "value": "0.9**"}, {"measurement": "Mean Global Score, dorsal skin", "setting": "[1]; topical 0.10%", "value": 4.9}, {"measurement": "Parakeratosis (0-4), group mean score of dorsal skin", "setting": "[1]; topical 0.10%", "value": 0.0}, {"measurement": "severity of microscopic alterations of back skin (histopathology)", "setting": "[1]; topical 0.05%", "value": "slightly lower severity"}, {"measurement": "severity of microscopic alterations of back skin (histopathology)", "setting": "[1]; topical 0.10% (w/v)", "value": "lower than in samples from vehicle-treated psoriatic controls and 0.05% (w/v) Compound I-treated mice"}, {"measurement": "Acanthosis, protective effect", "setting": "[1]; [5]", "value": "−"}, {"measurement": "Dermal inflammatory infiltrates, protective effect", "setting": "[1]; [5]", "value": "−"}, {"measurement": "Epidermal serocellular crust, protective effect", "setting": "[1]; [5]", "value": "+"}, {"measurement": "Hyperkeratosis, protective effect", "setting": "[1]; [5]", "value": "+"}, {"measurement": "granuloma formation", "setting": "granuloma formation", "value": "reduces granuloma formation"}, {"measurement": "induction of LXR-alpha expression compared with DMSO treated HepG2", "setting": "LXR-alpha", "value": 1.5, "unit": "times"}, {"measurement": "hypertriglyceridemia", "setting": "[2]", "value": "no signs"}, {"measurement": "liver (hepatic) steatosis", "setting": "[3]", "value": "no signs"}]}
